The values below are quoted from earlier work in patent publication US8278478B2, “Process for the synthesis of hydrochloride salt of N-fatty acylsubstituted amino acid ethyl esters” (priority 2009, dated 2012).

The conditions of the series: at 20° C.

Consider `CCCCCCCCCCCC(=O)N[C@@H](CCCNC(=N)N)C(=O)OCC.Cl` [Ethyl lauroyl arginate, ethyl-Nα-lauroyl-L-arginate HCl], for which the solubility in water result was “greater than 247 g/kg”.
